Patent publication US6071946A, “Tricyclic urea compounds” (Adir et Compagnie, priority 1994, dated 2000)

Assays:
C3H/He mice = assay: Free exploratory test in C3H/He mice; assay type: in vivo; settings: oral
Protocol: Effects in the free exploratory test in C3H/He mice
Behavior was assessed in a box subdivided into six equal square exploratory units, which were interconnected by small doors. It could be divided in half lengthwise by closing partitions. Twenty-four hours before the test, each animal was randomly placed in one half of the apparatus, with the temporary partitions in place, in order to become familiarized with it. […]
numbers of attempts towards the unfamiliar compartment latency of the first entry into the unfamiliar compartment time spent in the unfamiliar compartment locomotion in the unfamiliar compartment number of rears in the unfamiliar compartment locomotion in the familiar compartment number of rears in the familiar compartment
Compounds were orally administered at doses of […] (in 1% HEC), 40 minutes before the test.
The […] group received the vehicle under the same conditions.

[1] = Foregoing pharmacological Examples (A to I), carbamides or ureas substituted for the compounds of Examples 119 and 131; settings: in place of the compounds of Examples 119 and 131
melatonin receptors = target: T1, melatonin receptors (Ovis aries, UniProt P48040); assay: Binding to melatonin receptors, sheep pars tuberalis cells (competition with 2-iodo-melatonin); settings: sheep pars tuberalis membranes
T1 construct: Sheep pars tuberalis membranes are prepared and used as target tissue; from tissue; host or cells: sheep pars tuberalis membranes
Protocol: B1) Study on Sheep Pars Tuberalis Cells
Studies of the binding of the compounds of the invention to melatonin receptors were carried out according to conventional techniques on sheep pars tuberalis cells. The pars tuberalis of the adenohypophysis is in fact characterized, in mammals, by a high density of melatonin receptors (Journal of Neuroendocrinology, 1, pp 1-4, 1989).
1) Sheep pars tuberalis membranes are prepared and used as target tissue in saturation experiments in order to determine the binding capacities and affinities for 2-(^125 I) iodomelatonin.
2) Sheep pars tuberalis membranes are used as target tissue, with the various compounds to be tested, in competitive binding experiments with respect to 2-iodo-melatonin.
Each experiment is carried out in triplicate and a range of different concentrations is tested for each compound.
The results make it possible to determine, after statistical treatment, the binding affinities of the compound tested.

[2] = 40 minutes before test, statistically significant for the 3 tested doses

T1 sequence (P48040 whole entry): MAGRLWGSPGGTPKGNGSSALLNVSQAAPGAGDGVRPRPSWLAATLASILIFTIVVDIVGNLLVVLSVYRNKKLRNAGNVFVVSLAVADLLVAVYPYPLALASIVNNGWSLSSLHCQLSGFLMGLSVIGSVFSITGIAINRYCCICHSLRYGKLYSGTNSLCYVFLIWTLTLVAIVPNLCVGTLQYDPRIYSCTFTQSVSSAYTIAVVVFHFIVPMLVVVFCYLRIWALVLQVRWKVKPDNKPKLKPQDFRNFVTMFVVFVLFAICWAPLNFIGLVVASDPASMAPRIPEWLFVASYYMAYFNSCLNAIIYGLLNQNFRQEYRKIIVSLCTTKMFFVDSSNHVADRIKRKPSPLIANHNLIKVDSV

## CC(=O)NCCc1coc2ccc3c(c12)CCCO3 [Example 131, N-[2-(8,9-Dihydro-7H-furo[3,2-f]chromen-1-yl)ethyl]acetamide]
C3H/He mice; [2]
  latency of the first entry into the unfamiliar compartment: dose-dependently reduced
  locomotion in the unfamiliar compartment: increased the locomotion in the unfamiliar compartment
  numbers of attempts towards the unfamiliar compartment: dose-dependently reduced
C3H/He mice; at 25 mg/kg (highest dose)
  number of rears in the unfamiliar compartment: significantly increased the number of rears in the unfamiliar compartment
C3H/He mice; at 5 and 25 mg/kg
  time spent in the unfamiliar compartment: significantly increased the time spent in the unfamiliar compartment

## CNC(=O)NCCc1cccc2ccc3c(c12)CC(C)O3 (stereo not shown) [Example 120, N-[2-(2,3-DIHYDRO-2-METHYL-1-NAPHTHO[2,1-b]FURAN-4-YL)ETHYL]-N'-METHYLUREA]
[1]
  results in the foregoing pharmacological Examples, compared with the compounds of Examples 119 and 131: approximately equally statistically-significant results

## CC(=O)NCCc1cccc2ccc3c(c12)CC(C)O3 (stereo not shown) [Example 119, 2,3-DIHYDRO-2-METHYL-4-(2-ACETAMIDOETHYL)1-NAPHTHO[2,1-b]-FURAN]
Melatonin receptors
  affinity for melatonin receptors (in words): extremely powerful affinity
